Data reported in PubChem BioAssay AID2060885 (Molecular Pharmacology Branch, DTP, NCI, 2025).
pIC50: −log10 of the molar value. Values joined by “and” are separate entries in the source; they are usually repeats but may differ in a detail not shown here. Identical values can stand only once.

Test system: NCI-H23 complex spheroids with HUVEC/MSC, viability
Experiment: Anticancer human tumor NCI-H23 cell line growth inhibition [RAS];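 also: spheroids exposed to compound for 7 days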;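 as to viability, T/C: 100% = DMSO vehicle control viability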
Conditions: for viability, T/C: stronger effect = lower value
Description: RAS pathway inhibitors in Combinations in Complex Spheroids
A high-throughput screen of multi-cell type tumor spheroids was designed to identify active combinations of RAS pathway inhibitors and targeted small molecules. Complex spheroids include a stromal component modeled by human endothelial cells (HUVEC) and fibroblasts modeled by human mesenchymal stem cells (MSCs). The concentration ranges selected for each drug and investigational agent were based upon clinically achievable concentrations if the clinical Cmax of the agent was known.
Compounds. The drugs and investigational agents: abemaciclib (NSC768073), cobimetinib (NSC768068), divarasib (GDC6063, NSC841802), docetaxel (NSC628503), GDC-1971 (RLY-1971, NSC841576), gemcitabine (NSC613327), inavolisib (NSC800729), ipatasertib (NSC767898), KB-0742 (NSC834161), MRTX-1133 (NSC836407), osimertinib (NSC779217), RMC-4630 (NSC839698), RMC-6236 (NSC851965), RMC-6291 (NSC852671), Ro-3306 (NSC812927), sapanisertib (NSC764658), SN-38 (NSC673596), staurosporine (NSC755774), SY5609 (NSC837396), and tovorafenib (DAY101, NSC766906), were obtained from the National Cancer Institute (NCI) Developmental Therapeutics Program Chemical Repository. The FDA-approved anticancer drug set is available from the NCI Developmental Therapeutics Program. […] The stock solutions were prepared in dimethyl sulfoxide (DMSO, Sigma-Aldrich, St. Louis, MO, cat. D2650) at 800-fold the tested concentration and stored at -70 degrees C prior to their use. All drugs and investigational agents were tested over a range starting from a high concentration at or near the clinical Cmax and decreasing in half-log increments. If the clinical Cmax for an agent had not been determined, the highest concentration tested was 10 microM.
Cell Culture. All cells were maintained in an incubator at 37 degrees C and 5% CO2 with 95% humidity. The PDC lines were cultured according to standard operating procedures established by the NCI PDMR. All PDCs were thawed and cultured in Matrigel-coated flasks prepared with a working solution of 1X Ham's F-12 nutrient mix, without supplementation (Invitrogen, Waltham, MA, cat. 11765054), 100 U/mL penicillin-streptomycin (Invitrogen, cat. 15140122), and 2.5% Matrigel (Corning Inc., Corning, NY, cat. 354248) for the first three passages. The 362531-283-R-J2-PDC and 782815-120-R-J1-PDC lines were cultured in 6C/Colon 1B media, which includes advanced DMEM/F-12 (Thermo Fisher Scientific, cat. 12634028), 10 mM HEPES (Thermo Fisher Scientific, cat. 15630080), 1X GlutaMAX supplement (Thermo Fisher Scientific, cat. 35050061), 0.1 mg/mL primocin (InvivoGen, San Diego, CA, cat. ant-pm-2), 10% defined fetal bovine serum, heat inactivated (HyClone Laboratories Inc., Logan, UT, cat. SH30070.03HI), 50% L-WRN conditioned media (ATCC, cat. CRL-3276), 1.25 mM N-Acetyl-L-cysteine (Sigma-Aldrich, cat. A9165), 10 mM nicotinamide (Sigma-Aldrich, cat. N0636), 1X B-27 supplement (Thermo Fisher Scientific, cat. 17504044), 1X N-2 supplement (Thermo Fisher Scientific, cat. 17502048), 50 ng/mL human EGF (Thermo Fisher Scientific, cat. PHG0311), and 10 microM Y-27632 dihydrochloride (Tocris Bioscience, cat. 1254). The K12877-001-R-J1-PDC line was cultured in 6I media, which includes all 6C/Colon 1B media plus 10 ng/mL human FGF-10 (PeproTech, cat. 100-26), 1 ng/mL human FGF-2 (PeproTech, cat. 100-18B), 1 µM prostaglandin E2 (Tocris Bioscience, cat. 2296), […] hydrocortisone (Sigma-Aldrich, cat. H4001), and […] bovine insulin (Sigma-Aldrich, cat. I6634). The K86415-001-R-J1-PDC line was cultured in 6D media, which includes all 6C/Colon 1B media components minus the L-WRN conditioned media. The 485176-168-R4-J1-PDC was cultured in PANC media, which includes all 6C/Colon 1B media plus 100 ng/mL human FGF-10 (PeproTech, cat. 100-26), 500 nM SB-431542 (Selleckchem, cat. S1067), and 10 nM gastrin (Tocris Bioscience, cat. 3006). […]

[1] = compound alone, run of 07/09/2024

Compound | viability, T/C (compound 0.0316 µM) | viability, T/C (compound 0.1 µM) | viability, T/C (compound 0.316 µM) | viability, T/C (compound 1 µM) | viability, T/C (compound 3.16 µM) | viability, T/C (compound 10 µM) | IC50 (curve of compound) | viability, T/C (compound 0.00316 µM) | viability, T/C (compound 0.01 µM) | pIC50 (curve of compound) | viability, T/C (compound 0.000949 µM) | viability, T/C (compound 0.003 µM) | viability, T/C (compound 0.00949 µM) | viability, T/C (compound 0.03 µM) | viability, T/C (compound 0.0949 µM) | viability, T/C (compound 0.3 µM) | pIC50 [1]
CCC(CC)c1cc(NC2CCC(N)C2)n2nccc2n1 (stereo unspecified) | 106% and 101% and 105% (2×) | 108% [middle of 4 runs] | 101% [middle of 4 runs] | 88.2% [middle of 4 runs] | 15.2% [middle of 4 runs] | 0.91% [middle of 4 runs] | 1.81 µM [middle of 4 runs] | – | – | – | – | – | – | – | – | – | –
CCN1CCN(Cc2ccc(Nc3ncc(F)c(-c4cc(F)c5nc(C)n(C(C)C)c5c4)n3)nc2)CC1 | 78% [middle of 4 runs] | 70.2% [middle of 4 runs] | 58% [middle of 4 runs] | – | – | – | – | 100% and 104% (2×) and 103% | 92% [middle of 4 runs] | < 6.00 and 6.36 and 6.19 | – | – | – | – | – | – | –
CCc1c2c(nc3ccc(O)cc13)-c1cc3c(c(=O)n1C2)COC(=O)[C@]3(O)CC | – | – | – | – | – | – | 4.43 nM [middle of 4 runs] | – | – | – | 91.1% [middle of 4 runs] | 59.1% [middle of 4 runs] | 32.2% [middle of 4 runs] | 14.4% [middle of 4 runs] | 8.18% [middle of 4 runs] | 6.26% [middle of 4 runs] | –
CCn1c(-c2cc(N3CCN(C)CC3)cnc2C(C)OC)c2c3cc(ccc31)-c1csc(n1)CC(NC(=O)C1CC1C)C(=O)N1CCCC(N1)C(=O)OCC(C)(C)C2 (stereo unspecified) | – | – | – | – | – | – | – | – | – | – | 45.5% [middle of 8 runs] | 36.2% [middle of 8 runs] | 32.6% [middle of 8 runs] | 29.9% [middle of 8 runs] | 22.1% [middle of 8 runs] | 19.5% [middle of 8 runs] | > 9.02
CCn1c(-c2cccnc2C(C)OC)c2c3cc(ccc31)N1CCOC(CC(NC(=O)C(C(C)C)N(C)C(=O)C3(F)CCN(C(=O)C#CC(C)(C)N(C)C)CC3)C(=O)N3CCCC(N3)C(=O)OCC(C)(C)C2)C1 (stereo unspecified) | – | – | – | – | – | – | – | – | – | – | 32.4% [middle of 8 runs] | – | 30.6% [middle of 8 runs] | 31.6% [middle of 8 runs] | 30.8% [middle of 8 runs] | 28.1% [middle of 8 runs] | > 9.02 and 8.23
C[C@@H](NC(=O)c1ncnc(N)c1Cl)c1ncc(C(=O)Nc2cc(C(F)(F)F)c(Cl)cn2)s1 | 107% [middle of 4 runs] | 106% and 109% (2×) and 116% | 108% [middle of 4 runs] | 101% (2×) and 99.7% and 106% | 90.6% [middle of 4 runs] | – | – | – | – | < 5.00 | – | – | – | – | – | – | –
Cc1nc(N2CCC3(CC2)COC(C)C3N)c(CO)nc1Sc1ccnc(N)c1Cl (stereo unspecified) | 103% [middle of 4 runs] | – | 74.3% [middle of 4 runs] | 61.8% [middle of 4 runs] | 52.3% [middle of 4 runs] | 48.9% [middle of 4 runs] | – | – | – | – | – | – | – | – | – | – | –
Nc1ccn(C2OC(CO)C(O)C2(F)F)c(=O)n1 (stereo unspecified) | 8.37% [middle of 4 runs] | 7.36% [middle of 4 runs] | 7.15% [middle of 4 runs] | 10.5% [middle of 4 runs] | – | – | 5.35 nM [middle of 4 runs] | 77.2% [middle of 4 runs] | 15.3% [middle of 4 runs] | – | – | – | – | – | – | – | –
O=C(c1ccc(F)c(F)c1Nc1ccc(I)cc1F)N1CC(O)([C@@H]2CCCCN2)C1 | 68.2% [middle of 4 runs] | 46.3% [middle of 4 runs] | 34.2% [middle of 4 runs] | 19.7% [middle of 4 runs] | – | – | 78.2 nM [middle of 4 runs] | – | – | – | – | – | – | – | – | – | –
